From ChEMBL document CHEMBL5390237, “Discovery of Selective Histone Deacetylase 1 and 2 Inhibitors: Screening of a Focused Library Constructed by Click Chemistry, Kinetic Binding Analysis, and Biological Evaluation” (J Med Chem, 2023)
Active and inactive are the calls of the source. The calls are words filed in the database; no cut-off is given here.

Legend:
[1] = test system: MCF7; assay: Upregulation of TP53INP1 gene expression in human MCF7 cells at 2 uM incubated for 24 hrs by RT-qPCR analysis; type: functional, cell-based
[2] = target: Histone deacetylase 3/NCoR1 (Homo sapiens, UniProt O15379); assay: Inhibition of recombinant human HDAC3/human GST-tagged NCOR1 (397 to 503 residues) using K(Ac)382 peptide substrate preincubated for 3 hrs followed by substrate addition and measured after 30 mins by HDAC-Glo I/II chemiluminescence assay; type: protein-complex assay
[3] = target: T1, Histone deacetylase 2 (Homo sapiens, UniProt Q92769); assay: biochemical; type: cell-based, Sf9
[4] = target: T2, Histone deacetylase 7 (Homo sapiens) (UniProt Q8WUI4); assay: Inhibition of recombinant human HDAC7 using fluorogenic substrate preincubated for 3 hrs followed by substrate addition and measured after 30 mins by fluorescence analysis; details: time 3.5 hrs
T2 sequence (whole entry): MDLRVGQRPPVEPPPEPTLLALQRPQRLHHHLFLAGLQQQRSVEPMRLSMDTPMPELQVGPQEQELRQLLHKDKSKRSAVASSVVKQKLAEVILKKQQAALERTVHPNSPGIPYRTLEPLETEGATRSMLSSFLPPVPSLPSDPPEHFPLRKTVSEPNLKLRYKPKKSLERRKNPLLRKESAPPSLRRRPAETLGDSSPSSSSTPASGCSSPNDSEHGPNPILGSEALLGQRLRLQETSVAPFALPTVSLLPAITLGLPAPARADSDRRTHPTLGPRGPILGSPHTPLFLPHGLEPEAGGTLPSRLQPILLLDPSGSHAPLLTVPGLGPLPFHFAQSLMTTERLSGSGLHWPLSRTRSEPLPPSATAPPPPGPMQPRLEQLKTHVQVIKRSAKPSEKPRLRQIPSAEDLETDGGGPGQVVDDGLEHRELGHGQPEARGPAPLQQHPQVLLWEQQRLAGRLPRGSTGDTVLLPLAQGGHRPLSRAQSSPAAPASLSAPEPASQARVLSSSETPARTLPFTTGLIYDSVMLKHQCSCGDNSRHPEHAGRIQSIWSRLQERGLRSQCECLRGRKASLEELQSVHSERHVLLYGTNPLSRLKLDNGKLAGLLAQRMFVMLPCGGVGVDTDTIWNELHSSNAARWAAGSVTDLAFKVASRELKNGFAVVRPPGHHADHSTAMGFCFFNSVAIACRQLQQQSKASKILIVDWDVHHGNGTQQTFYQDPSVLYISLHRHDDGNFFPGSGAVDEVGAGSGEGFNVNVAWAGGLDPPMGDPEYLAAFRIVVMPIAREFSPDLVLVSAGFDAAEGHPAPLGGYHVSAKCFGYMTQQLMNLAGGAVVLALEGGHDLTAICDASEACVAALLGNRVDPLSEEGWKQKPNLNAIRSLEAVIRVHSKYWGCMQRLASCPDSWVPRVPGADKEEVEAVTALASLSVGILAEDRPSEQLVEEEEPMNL

[5] = target: T3, Histone deacetylase (Homo sapiens) (UniProt Q13547+O15379+Q9UBN7+Q92769+Q9UQL6+Q8WUI4+Q9BY41+Q96DB2+P56524+Q9UKV0+Q969S8); details: MCF7, dose 1.0 µM, time <= 48.0 hrs
[6] = test system: MCF7; assay: Upregulation of DDIT4 gene expression in human MCF7 cells at 2 uM incubated for 24 hrs by RT-qPCR analysis; type: functional, cell-based
[7] = target: T1, Histone deacetylase 2; details: Sf9, dose 30-100 nM, time 3.5 hrs
[8] = Cytotoxicity against human HMEC cells assessed as inhibition of cell viability incubated for 3 days by AlamarBlue based fluorescence analysis
[9] = target: Histone deacetylase 4 (Homo sapiens) (UniProt P56524); assay: Inhibition of recombinant human HDAC4 using fluorogenic substrate preincubated for 3 hrs followed by substrate addition and measured after 30 mins by fluorescence analysis; details: time 3.5 hrs
[10] = test system: MCF7; assay: Downregulation of E2F1 gene expression in human MCF7 cells at 2 uM incubated for 24 hrs by microarray analysis; type: functional, cell-based
[11] = target: T1, Histone deacetylase 2; assay: Inhibition of full-length recombinant human C-terminal GST tagged HDAC2 expressed in Sf9 insect cells using aminoluciferin peptide substrate at 100 nM preincubated for 3 hrs followed by substrate addition and measured after 30 mins by HDAC-Glo I/II chemiluminescence assay; details: time 3.5 hrs
[12] = target: T1, Histone deacetylase 2; assay: Inhibition of full-length recombinant human C-terminal GST tagged HDAC2 expressed in Sf9 insect cells using aminoluciferin peptide substrate preincubated for 3 hrs followed by substrate addition and measured after 30 mins by HDAC-Glo I/II chemiluminescence assay; type: cell-based
[13] = test system: MCF7; assay: Upregulation of GADD45A gene expression in human MCF7 cells at 2 uM incubated for 24 hrs by RT-qPCR analysis; type: functional, cell-based
[14] = target: Histone deacetylase 1 (Homo sapiens, UniProt Q13547); assay: Inhibition of full-length recombinant human C-terminal GST tagged HDAC1 expressed in Sf9 insect cells using aminoluciferin peptide substrate at 10 to 100 nM preincubated for 3 hrs followed by substrate addition and measured after 30 mins by HDAC-Glo I/II chemiluminescence assay; details: dose 10-100 nM, time 3.5 hrs
[15] = test system: MCF7; assay: cells; type: functional; details: Homo sapiens, time 48 hrs
Description: Anticancer activity against human MCF7 cells overexpressing HDAC1 and HDAC2 assessed as inhibition of cell growth incubated for 48 hrs by sulforhodamine B assay

[16] = test system: MCF7; assay: Downregulation of E2F7 gene expression in human MCF7 cells at 2 uM incubated for 24 hrs by microarray analysis; type: functional, cell-based
[17] = target: Histone deacetylase 9 (Homo sapiens) (UniProt Q9UKV0); assay: Inhibition of recombinant human HDAC9 using fluorogenic substrate preincubated for 3 hrs followed by substrate addition and measured after 30 mins by fluorescence analysis; details: time 3.5 hrs
[18] = target: T3, Histone deacetylase (Homo sapiens); details: MCF7, dose 10.0 µM, time <= 48.0 hrs

T1 sequence (Q92769 whole entry): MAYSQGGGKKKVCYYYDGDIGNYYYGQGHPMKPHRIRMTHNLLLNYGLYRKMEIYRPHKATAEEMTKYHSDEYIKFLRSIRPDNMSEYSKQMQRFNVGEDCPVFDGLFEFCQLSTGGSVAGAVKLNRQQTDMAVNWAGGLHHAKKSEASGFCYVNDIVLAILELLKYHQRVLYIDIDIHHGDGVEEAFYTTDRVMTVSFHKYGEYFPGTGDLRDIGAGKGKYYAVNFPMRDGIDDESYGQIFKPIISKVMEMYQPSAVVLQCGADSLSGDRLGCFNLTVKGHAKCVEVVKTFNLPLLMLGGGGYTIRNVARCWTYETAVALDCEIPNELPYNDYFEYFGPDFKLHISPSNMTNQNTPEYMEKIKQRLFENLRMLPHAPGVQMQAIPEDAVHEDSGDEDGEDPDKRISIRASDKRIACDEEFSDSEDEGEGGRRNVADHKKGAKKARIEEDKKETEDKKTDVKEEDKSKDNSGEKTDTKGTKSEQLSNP
Histone deacetylase 3/NCoR1, sequence (O15379 whole entry, the tested form may be a part): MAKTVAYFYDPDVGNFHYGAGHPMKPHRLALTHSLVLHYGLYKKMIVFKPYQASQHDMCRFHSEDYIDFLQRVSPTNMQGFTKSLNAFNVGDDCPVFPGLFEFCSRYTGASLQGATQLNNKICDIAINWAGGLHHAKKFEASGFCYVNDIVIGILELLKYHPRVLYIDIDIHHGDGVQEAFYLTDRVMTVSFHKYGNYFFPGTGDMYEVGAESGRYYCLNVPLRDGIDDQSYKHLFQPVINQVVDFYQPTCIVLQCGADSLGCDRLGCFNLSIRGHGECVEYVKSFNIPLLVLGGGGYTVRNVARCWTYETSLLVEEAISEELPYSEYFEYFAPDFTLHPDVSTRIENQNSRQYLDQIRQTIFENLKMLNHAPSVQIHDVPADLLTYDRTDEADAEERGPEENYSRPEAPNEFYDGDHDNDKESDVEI
Histone deacetylase 3/NCoR1, sequence (O75376 whole entry, further chain, the tested form may be a part): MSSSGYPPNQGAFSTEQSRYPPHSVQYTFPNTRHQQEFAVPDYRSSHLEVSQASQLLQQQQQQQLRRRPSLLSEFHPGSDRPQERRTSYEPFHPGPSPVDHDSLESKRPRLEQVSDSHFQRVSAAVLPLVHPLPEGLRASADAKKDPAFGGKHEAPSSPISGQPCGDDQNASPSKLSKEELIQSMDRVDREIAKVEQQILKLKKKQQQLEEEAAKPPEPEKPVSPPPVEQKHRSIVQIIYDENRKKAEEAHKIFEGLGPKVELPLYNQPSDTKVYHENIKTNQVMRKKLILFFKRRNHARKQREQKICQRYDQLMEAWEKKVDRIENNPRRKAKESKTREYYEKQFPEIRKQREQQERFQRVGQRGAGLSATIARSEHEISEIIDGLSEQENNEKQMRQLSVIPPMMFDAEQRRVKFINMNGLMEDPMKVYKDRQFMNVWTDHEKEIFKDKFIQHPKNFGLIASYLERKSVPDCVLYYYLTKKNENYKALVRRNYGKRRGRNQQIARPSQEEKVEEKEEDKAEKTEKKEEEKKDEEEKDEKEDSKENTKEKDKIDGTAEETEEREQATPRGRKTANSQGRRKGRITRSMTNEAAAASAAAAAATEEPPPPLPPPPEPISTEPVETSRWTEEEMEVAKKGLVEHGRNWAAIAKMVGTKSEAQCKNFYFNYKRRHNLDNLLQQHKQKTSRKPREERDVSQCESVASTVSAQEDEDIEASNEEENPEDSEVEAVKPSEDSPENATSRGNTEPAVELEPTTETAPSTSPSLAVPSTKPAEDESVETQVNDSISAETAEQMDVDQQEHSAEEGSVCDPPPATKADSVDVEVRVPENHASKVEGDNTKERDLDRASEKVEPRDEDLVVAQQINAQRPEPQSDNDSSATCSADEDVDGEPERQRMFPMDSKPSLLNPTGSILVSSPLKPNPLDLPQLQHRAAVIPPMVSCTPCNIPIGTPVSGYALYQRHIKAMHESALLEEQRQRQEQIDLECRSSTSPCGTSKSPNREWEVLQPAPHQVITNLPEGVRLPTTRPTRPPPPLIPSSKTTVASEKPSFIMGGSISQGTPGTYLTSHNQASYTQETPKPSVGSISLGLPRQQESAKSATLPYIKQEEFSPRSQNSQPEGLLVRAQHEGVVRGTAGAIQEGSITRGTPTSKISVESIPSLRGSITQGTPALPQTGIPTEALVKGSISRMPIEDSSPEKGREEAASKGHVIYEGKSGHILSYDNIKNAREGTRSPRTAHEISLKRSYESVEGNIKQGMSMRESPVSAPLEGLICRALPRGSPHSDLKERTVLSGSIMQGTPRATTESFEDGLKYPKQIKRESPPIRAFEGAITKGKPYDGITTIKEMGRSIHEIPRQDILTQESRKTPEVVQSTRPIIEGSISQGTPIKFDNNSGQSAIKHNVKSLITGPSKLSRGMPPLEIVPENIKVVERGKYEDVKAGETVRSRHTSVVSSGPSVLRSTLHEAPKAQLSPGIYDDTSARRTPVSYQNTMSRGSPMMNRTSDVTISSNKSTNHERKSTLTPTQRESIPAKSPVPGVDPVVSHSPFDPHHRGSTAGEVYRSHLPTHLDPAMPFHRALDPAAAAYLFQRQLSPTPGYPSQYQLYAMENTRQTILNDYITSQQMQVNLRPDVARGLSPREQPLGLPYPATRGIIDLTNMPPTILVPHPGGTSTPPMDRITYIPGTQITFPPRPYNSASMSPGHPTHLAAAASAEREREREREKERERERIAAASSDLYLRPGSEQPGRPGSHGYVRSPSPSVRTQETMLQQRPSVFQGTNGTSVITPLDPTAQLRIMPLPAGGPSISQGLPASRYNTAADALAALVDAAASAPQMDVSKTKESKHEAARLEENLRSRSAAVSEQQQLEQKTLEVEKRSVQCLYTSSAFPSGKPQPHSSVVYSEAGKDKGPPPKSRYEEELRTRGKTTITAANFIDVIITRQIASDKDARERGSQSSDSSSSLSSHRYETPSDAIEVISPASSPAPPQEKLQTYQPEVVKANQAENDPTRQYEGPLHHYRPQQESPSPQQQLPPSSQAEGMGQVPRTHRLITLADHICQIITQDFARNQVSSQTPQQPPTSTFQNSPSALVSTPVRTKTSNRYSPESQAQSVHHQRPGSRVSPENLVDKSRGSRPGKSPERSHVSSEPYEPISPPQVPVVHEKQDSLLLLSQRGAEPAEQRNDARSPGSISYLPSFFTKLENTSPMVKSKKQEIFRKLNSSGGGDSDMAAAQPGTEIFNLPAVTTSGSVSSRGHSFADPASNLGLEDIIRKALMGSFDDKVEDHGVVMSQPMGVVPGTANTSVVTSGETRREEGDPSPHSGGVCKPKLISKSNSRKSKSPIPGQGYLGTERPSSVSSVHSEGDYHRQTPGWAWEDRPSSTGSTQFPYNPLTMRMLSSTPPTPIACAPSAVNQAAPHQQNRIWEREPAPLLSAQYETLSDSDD
Histone deacetylase 9 (Homo sapiens), sequence (Q9UKV0 whole entry): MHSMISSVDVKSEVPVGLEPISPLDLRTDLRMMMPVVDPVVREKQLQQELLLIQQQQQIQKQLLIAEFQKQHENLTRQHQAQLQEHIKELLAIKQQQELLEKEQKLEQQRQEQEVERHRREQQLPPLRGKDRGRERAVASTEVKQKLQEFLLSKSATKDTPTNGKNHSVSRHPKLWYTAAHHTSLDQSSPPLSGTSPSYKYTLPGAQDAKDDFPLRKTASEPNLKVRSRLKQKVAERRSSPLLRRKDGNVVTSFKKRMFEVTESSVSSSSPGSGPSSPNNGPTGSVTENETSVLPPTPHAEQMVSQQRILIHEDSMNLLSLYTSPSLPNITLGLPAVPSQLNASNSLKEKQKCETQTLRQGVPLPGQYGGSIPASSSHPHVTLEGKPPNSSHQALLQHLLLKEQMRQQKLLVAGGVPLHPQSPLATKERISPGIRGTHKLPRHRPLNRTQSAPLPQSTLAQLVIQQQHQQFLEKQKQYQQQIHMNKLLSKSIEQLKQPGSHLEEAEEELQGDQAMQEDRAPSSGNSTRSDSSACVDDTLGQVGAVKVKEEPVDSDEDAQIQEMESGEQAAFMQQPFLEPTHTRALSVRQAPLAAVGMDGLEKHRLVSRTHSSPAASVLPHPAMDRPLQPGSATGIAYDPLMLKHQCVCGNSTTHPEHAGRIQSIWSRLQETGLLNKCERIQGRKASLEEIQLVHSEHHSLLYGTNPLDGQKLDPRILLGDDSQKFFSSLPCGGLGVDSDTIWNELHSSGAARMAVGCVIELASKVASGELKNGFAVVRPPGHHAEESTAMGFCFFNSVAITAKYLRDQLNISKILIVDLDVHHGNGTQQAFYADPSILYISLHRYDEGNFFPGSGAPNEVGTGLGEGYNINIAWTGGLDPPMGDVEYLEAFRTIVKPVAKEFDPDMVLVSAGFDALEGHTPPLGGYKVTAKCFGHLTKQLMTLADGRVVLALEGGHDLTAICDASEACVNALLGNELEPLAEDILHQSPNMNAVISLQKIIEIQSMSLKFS
Histone deacetylase 1, sequence (Q13547 whole entry): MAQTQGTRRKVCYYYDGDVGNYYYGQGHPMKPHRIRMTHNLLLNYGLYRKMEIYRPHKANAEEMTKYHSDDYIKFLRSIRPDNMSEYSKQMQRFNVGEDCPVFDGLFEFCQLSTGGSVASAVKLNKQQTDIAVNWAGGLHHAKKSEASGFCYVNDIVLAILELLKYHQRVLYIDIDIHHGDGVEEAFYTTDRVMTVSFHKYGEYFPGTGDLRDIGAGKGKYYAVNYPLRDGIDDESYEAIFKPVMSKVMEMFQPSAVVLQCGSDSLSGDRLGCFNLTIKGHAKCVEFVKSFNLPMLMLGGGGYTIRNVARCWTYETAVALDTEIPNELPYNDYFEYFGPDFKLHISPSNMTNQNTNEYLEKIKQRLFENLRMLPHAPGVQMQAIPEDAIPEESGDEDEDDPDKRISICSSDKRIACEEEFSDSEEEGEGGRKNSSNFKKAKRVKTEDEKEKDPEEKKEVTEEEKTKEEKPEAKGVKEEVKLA

IC50 [2] | Ki [3] | inhibition [4] | TDI [5] | inhibition [7] | inhibition [9] | inhibition [11] | IC50 [12] | inhibition [14] | GI50 [15] | inhibition [17] | TDI [18] | Compound | Activity [1] | Activity [6] | IC50 at 3 days [8] | Activity [10] | Activity [13] | Activity [16]
> 10 µM | 0.0062 µM | inactive | Active | Dose-Dependent Effect | inactive | 77% | 0.068 µM | Active | 0.043 µM | inactive | Active | Nc1ccc(-c2cccs2)cc1NC(=O)c1ccc(-c2cn(CS(=O)(=O)c3ccccc3)nn2)cc1 | Active | Active | 9.85 µM | Active | Active | Active
> 10 µM | 0.022 µM | inactive | Active | Dose-Dependent Effect | inactive | 87% | 0.019 µM | Active | 1.86 µM | inactive | Active | Nc1ccc(-c2cccs2)cc1NC(=O)c1ccc(-c2cn(C[S+]([O-])c3ccccc3)nn2)cc1 (centres undefined) | Active | Active | > 10 µM | Active | Active | Active
> 10 µM | 0.0098 µM | inactive | Active | Dose-Dependent Effect | inactive | 81% | 0.017 µM | Active | 52.5 µM | inactive | Active | Nc1ccc(-c2cccs2)cc1NC(=O)c1ccc(-c2cn(CCc3ccccn3)nn2)cc1 | Active | Active | 4.35 µM | Active | Active | Active
